Test results from patent publication US10035771B2 (priority 2013, dated 2018).

How the values were obtained:
[1] = target: BoNT/F-LC (Clostridium botulinum, UniProt A7GBG3); experiment: biochemical; conditions: for inhibition at 100 µg/mL: read-out: Inhibition rate %
[2] = target: type B botulinum toxin (BoNT/B) (Clostridium botulinum, UniProt P10844); set-up: species or system Balb/c mice; conditions: mouse, in vivo, ip
[3] = target: type A botulinum toxin light chain (BoNT/A-LC) (Clostridium botulinum, UniProt P0DPI1); experiment: biochemical; conditions: for inhibition at 100 µg/mL: read-out: Inhibition rate %
[4] = target: type B botulinum toxin light chain (BoNT/B-LC) (Clostridium botulinum, UniProt P10844); experiment: biochemical; conditions: for inhibition at 100 µg/mL: read-out: Inhibition rate %
[5] = target: tetanus toxin light chain (TeNt-LC) (Clostridium tetani, UniProt P04958); experiment: biochemical; conditions: for inhibition at 200 µg/mL: read-out: Inhibition rate %
[6] = target: type E botulinum toxin light chain (BoNT/E-LC) (Clostridium botulinum, UniProt Q00496); experiment: biochemical; conditions: for inhibition at 100 µg/mL: read-out: Inhibition rate %
[7] = target: type A botulinum toxin (BoNT/A) (Clostridium botulinum, UniProt P0DPI1); set-up: species or system Balb/c mice; conditions: mouse, in vivo, ip
[8] = target: light chain of type A botulinum toxin (Clostridium botulinum, UniProt P0DPI1); conditions: read-out: Ki value; cited from earlier work

Sequence of tetanus toxin light chain (TeNt-LC) (P04958 2-457 limits assumed): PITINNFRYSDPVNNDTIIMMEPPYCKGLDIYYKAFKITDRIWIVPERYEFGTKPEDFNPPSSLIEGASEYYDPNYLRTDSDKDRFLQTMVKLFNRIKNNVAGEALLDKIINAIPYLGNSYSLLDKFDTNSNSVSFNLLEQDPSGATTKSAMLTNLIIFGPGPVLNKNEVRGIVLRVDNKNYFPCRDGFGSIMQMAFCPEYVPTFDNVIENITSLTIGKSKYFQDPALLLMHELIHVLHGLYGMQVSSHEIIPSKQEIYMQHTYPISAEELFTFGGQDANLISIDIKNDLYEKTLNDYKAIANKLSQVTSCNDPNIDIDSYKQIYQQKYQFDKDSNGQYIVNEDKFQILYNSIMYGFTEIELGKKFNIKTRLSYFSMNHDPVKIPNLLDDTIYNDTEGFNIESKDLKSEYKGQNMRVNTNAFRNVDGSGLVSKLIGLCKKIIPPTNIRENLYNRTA
Sequence of type B botulinum toxin (BoNT/B) (P10844 2-441 limits assumed): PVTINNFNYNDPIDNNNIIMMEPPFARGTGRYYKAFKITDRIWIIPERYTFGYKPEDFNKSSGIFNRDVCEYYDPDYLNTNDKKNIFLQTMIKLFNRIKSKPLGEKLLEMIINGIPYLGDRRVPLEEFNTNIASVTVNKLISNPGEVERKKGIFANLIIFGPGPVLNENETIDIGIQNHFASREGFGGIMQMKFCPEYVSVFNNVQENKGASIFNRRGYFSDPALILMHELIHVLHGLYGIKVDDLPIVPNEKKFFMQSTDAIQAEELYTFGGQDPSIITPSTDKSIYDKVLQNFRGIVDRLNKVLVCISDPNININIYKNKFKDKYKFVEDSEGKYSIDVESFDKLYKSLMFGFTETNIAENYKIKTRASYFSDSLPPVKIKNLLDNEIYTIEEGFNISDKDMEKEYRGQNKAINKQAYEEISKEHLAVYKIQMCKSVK
Sequence of type B botulinum toxin (BoNT/B) (P10844 442-1291 limits assumed): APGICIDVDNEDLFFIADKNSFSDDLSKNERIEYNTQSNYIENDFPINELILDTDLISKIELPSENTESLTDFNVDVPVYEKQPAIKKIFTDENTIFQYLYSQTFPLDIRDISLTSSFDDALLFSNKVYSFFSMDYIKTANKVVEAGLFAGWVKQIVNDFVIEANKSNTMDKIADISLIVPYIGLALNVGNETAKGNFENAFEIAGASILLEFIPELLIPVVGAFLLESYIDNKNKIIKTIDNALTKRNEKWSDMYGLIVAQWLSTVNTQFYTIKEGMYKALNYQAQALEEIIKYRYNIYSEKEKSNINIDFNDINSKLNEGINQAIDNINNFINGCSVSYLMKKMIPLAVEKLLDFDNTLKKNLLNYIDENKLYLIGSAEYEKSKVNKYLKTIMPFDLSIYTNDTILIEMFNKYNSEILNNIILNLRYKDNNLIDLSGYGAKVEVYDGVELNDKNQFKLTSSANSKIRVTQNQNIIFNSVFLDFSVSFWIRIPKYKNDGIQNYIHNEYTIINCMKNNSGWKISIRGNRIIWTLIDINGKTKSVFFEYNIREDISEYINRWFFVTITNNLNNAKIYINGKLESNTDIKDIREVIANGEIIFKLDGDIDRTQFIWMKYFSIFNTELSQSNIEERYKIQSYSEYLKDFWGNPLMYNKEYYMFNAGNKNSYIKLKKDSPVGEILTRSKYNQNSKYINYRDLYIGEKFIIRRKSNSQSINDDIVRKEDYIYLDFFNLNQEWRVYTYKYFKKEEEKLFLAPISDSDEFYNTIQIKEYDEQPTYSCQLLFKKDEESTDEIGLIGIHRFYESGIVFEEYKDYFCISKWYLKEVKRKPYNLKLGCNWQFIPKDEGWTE
Sequence of type B botulinum toxin light chain (BoNT/B-LC) (P10844 2-441 limits assumed): as the sequence (P10844 2-441 limits assumed) above
Sequence of type A botulinum toxin light chain (BoNT/A-LC) (P0DPI1 2-448 limits assumed): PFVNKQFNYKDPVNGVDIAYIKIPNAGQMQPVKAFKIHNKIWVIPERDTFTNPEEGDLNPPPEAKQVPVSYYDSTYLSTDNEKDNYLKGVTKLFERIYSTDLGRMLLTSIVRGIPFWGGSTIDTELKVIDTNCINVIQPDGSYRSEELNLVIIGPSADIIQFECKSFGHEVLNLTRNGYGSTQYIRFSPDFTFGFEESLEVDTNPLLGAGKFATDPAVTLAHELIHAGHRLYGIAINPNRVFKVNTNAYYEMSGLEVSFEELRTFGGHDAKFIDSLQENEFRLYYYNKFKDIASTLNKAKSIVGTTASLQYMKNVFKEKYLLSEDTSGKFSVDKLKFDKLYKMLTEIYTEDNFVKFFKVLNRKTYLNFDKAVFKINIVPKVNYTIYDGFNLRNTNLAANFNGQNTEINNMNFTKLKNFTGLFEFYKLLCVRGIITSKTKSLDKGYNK
Sequence of type A botulinum toxin (BoNT/A) (P0DPI1 2-448 limits assumed): as above
Sequence of type A botulinum toxin (BoNT/A) (P0DPI1 449-1296 limits assumed): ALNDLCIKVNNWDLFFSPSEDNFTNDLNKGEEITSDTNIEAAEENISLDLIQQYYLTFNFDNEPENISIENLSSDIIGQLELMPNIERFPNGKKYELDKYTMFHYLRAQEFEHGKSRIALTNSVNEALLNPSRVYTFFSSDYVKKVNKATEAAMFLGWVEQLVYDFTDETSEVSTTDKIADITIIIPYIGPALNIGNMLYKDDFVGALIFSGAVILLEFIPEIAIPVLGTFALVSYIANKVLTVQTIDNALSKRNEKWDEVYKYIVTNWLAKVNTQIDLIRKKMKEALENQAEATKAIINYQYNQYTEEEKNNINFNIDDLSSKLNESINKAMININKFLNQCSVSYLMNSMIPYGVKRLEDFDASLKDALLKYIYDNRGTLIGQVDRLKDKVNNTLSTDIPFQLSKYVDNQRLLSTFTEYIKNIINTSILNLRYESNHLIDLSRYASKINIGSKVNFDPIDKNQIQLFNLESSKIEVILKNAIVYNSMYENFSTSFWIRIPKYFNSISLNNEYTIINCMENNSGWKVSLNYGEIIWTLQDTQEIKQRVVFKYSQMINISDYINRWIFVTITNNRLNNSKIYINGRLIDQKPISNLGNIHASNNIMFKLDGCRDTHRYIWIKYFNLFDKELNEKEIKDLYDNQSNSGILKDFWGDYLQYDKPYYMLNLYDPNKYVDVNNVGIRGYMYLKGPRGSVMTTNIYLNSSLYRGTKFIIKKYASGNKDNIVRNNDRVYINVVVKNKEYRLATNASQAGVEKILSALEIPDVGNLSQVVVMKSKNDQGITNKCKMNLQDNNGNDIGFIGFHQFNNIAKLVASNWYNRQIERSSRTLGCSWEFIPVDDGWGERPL
Sequence of type E botulinum toxin light chain (BoNT/E-LC) (Q00496 2-422 limits assumed): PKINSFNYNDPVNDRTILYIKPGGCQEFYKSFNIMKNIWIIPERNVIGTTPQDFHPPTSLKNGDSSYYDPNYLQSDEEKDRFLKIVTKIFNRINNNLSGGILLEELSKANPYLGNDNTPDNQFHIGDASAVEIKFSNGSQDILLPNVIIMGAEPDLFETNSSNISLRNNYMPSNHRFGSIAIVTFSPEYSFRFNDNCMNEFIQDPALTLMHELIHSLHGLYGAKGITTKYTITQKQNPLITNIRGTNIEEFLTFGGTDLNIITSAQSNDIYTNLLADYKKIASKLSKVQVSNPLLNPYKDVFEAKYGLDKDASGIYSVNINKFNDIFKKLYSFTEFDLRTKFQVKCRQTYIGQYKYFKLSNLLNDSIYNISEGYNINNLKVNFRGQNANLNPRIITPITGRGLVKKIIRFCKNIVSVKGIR
Sequence of BoNT/F-LC (A7GBG3 1-436 limits assumed): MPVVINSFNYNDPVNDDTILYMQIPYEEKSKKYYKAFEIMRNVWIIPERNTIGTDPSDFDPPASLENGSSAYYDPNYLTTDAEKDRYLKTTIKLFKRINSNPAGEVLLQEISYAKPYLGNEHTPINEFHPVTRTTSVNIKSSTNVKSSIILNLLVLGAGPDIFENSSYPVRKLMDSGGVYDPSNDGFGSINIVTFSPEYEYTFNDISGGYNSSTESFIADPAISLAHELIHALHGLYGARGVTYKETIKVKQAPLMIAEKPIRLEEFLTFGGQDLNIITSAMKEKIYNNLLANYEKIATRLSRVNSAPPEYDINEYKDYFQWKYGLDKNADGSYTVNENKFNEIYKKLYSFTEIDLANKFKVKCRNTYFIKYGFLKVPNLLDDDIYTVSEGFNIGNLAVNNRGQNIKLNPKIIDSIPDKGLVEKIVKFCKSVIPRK

COc1ccc(Cl)cc1NCC(=O)Sc1ncccc1C(=O)[O-].[Na+] [Example 1, 2-(2-(5-chloro-2-methoxyanilino)acetylthio)nicotinate sodium]
inhibition at 100 µg/mL [1]: 12.2%
% survival [2]: 40%
inhibition at 100 µg/mL [3]: 8.4%
inhibition at 100 µg/mL [4]: 27.8%
inhibition at 200 µg/mL [5]: 12.8%
inhibition at 100 µg/mL [6]: 7.32%

COc1ccc(Cl)cc1NC(=O)CSc1ncccc1C(=O)O [Example 2]
inhibition at 100 µg/mL [1]: 13.2%
inhibition at 100 µg/mL [3]: 12.1%
inhibition at 100 µg/mL [4]: 20.5%
inhibition at 200 µg/mL [5]: 12.3%
inhibition at 100 µg/mL [6]: 11.6%

COc1ccc(Cl)cc1NC(=O)CSc1ncccc1C(=O)[O-].[K+] [Example 3]
Inhibition rate % [1]: 19.2%
% survival [2]: 60%
Inhibition rate % [3]: 11.3%
% survival [7]: 40%
Inhibition rate % [4]: 30.2%
Inhibition rate % [5]: 20.2%
Inhibition rate % [6]: 16.5%

COc1cc(Cl)cc(NCC(=O)Sc2ncccc2C(=O)[O-])c1.[Na+] [Example 4, 2-(2-(3-chloro-5-methoxyanilino)acetylthio)nicotinate sodium]
inhibition at 100 µg/mL [1]: 48.6%
% survival [2]: 100%
inhibition at 100 µg/mL [3]: 45.4%
% survival [7]: 100%
inhibition at 100 µg/mL [4]: 95.5%
inhibition at 200 µg/mL [5]: 34.5%
inhibition at 100 µg/mL [6]: 43.2%

CCOc1ccccc1NC(=O)CSc1ncccc1C(=O)O [Example 5]
inhibition at 100 µg/mL [1]: 5%
inhibition at 100 µg/mL [3]: 2.7%
inhibition at 100 µg/mL [4]: 4.3%
inhibition at 200 µg/mL [5]: 8%
inhibition at 100 µg/mL [6]: 6.8%

CCOc1ccc(Cl)cc1NC(=O)CSc1ncccc1C(=O)O [Example 6]
inhibition at 100 µg/mL [1]: 6.7%
inhibition at 100 µg/mL [3]: 14.7%
inhibition at 100 µg/mL [4]: 8.6%
inhibition at 200 µg/mL [5]: 4.7%
inhibition at 100 µg/mL [6]: 16.8%

CCCOc1ccc(Cl)cc1NC(=O)CSc1ncccc1C(=O)O [Example 7]
inhibition at 100 µg/mL [1]: 11.3%
inhibition at 100 µg/mL [3]: 18.1%
inhibition at 100 µg/mL [4]: 24.2%
inhibition at 200 µg/mL [5]: 20%
inhibition at 100 µg/mL [6]: 14%

O=C(CSc1ncccc1C(=O)[O-])Nc1ccccc1Cl.[K+] [Example 8, potassium]
inhibition at 100 µg/mL [1]: 15.3%
inhibition at 100 µg/mL [3]: 25.1%
inhibition at 100 µg/mL [4]: 35%
inhibition at 200 µg/mL [5]: 21.1%
inhibition at 100 µg/mL [6]: 27.6%

O=C(CSc1ncccc1C(=O)[O-])Nc1ccccc1Cl.[K+] [Example 8]
% survival [2]: 0%
% survival [7]: 80%

O=C(CSc1ncccc1C(=O)[O-])Nc1cc(Br)ccc1Br.[K+] [Example 9, potassium]
inhibition at 100 µg/mL [1]: 12.1%
inhibition at 100 µg/mL [3]: 9.3%
inhibition at 100 µg/mL [4]: 29.2%
inhibition at 200 µg/mL [5]: 15.2%
inhibition at 100 µg/mL [6]: 8.2%

O=C(CSc1ncccc1C(=O)[O-])Nc1cc(Br)ccc1Br.[K+] [Example 9]
% survival [2]: 20%

O=C(CSc1ncccc1C(=O)[O-])Nc1ccc(Br)cc1.[K+] [Example 12, potassium]
inhibition at 100 µg/mL [1]: 13.2%
inhibition at 100 µg/mL [3]: 9.4%
inhibition at 100 µg/mL [4]: 29.1%
inhibition at 200 µg/mL [5]: 16.4%
inhibition at 100 µg/mL [6]: 12.3%

O=C(CSc1ncccc1C(=O)[O-])Nc1ccc(Br)cc1.[K+] [Example 12]
% survival [2]: 80%

COc1ccc(F)cc1NC(=O)CSc1ncccc1C(=O)O [Example 13, potassium]
inhibition at 100 µg/mL [1]: 16.4%
inhibition at 100 µg/mL [3]: 20.3%
inhibition at 100 µg/mL [4]: 22%
inhibition at 200 µg/mL [5]: 14.6%
inhibition at 100 µg/mL [6]: 18.3%

COc1ccc(Cl)c(NC(=O)CSc2ncccc2C(=O)[O-])c1.[K+] [Example 14, potassium]
inhibition at 100 µg/mL [1]: 9.8%
inhibition at 100 µg/mL [3]: 19.8%
inhibition at 100 µg/mL [4]: 24.2%
inhibition at 200 µg/mL [5]: 12.3%
inhibition at 100 µg/mL [6]: 13.5%

COc1ccc(Cl)c(NC(=O)CSc2ncccc2C(=O)[O-])c1.[K+] [Example 14]
% survival [7]: 20%

COc1ccc(Cl)cc1NC(=O)CSc1cc(C(=O)[O-])ccn1.[K+] [Example 15, potassium]
inhibition at 100 µg/mL [1]: 7.2%
inhibition at 100 µg/mL [3]: 3%
inhibition at 100 µg/mL [4]: 19.4%
inhibition at 200 µg/mL [5]: 23.5%
inhibition at 100 µg/mL [6]: 16.3%

COc1ccc(Cl)cc1NC(=O)CSc1cc(C(=O)[O-])ccn1.[K+] [Example 15]
% survival [7]: 80%

COc1ccc(OC)c(NC(=O)CSc2ncccc2C(=O)O)c1 [Example 16, potassium]
inhibition at 100 µg/mL [1]: 9.8%
inhibition at 100 µg/mL [3]: 17.9%
inhibition at 100 µg/mL [4]: 20.1%
inhibition at 200 µg/mL [5]: 16.2%
inhibition at 100 µg/mL [6]: 5.2%

O=C(CSc1ncccc1C(=O)O)Nc1ccccc1 [Example 17, 2-(anilino-2-acetylthio)nicotinic Acid]
inhibition at 100 µg/mL [1]: 8.3%
inhibition at 100 µg/mL [3]: 15.4%
inhibition at 100 µg/mL [4]: 3.7%
inhibition at 200 µg/mL [5]: 6.4%
inhibition at 100 µg/mL [6]: 18%

O=C(CSc1ncccc1C(=O)[O-])Nc1cc(F)ccc1Cl.[K+] [Example 18, 2-(2-(5-fluoro-2-chlorophenyl)-2-acetylthio)nicotinate potassium]
inhibition at 100 µg/mL [1]: 16.2%
% survival [2]: 40%
inhibition at 100 µg/mL [3]: 11.4%
% survival [7]: 0%
inhibition at 100 µg/mL [4]: 30.2%
inhibition at 200 µg/mL [5]: 19.3%
inhibition at 100 µg/mL [6]: 17.2%

O=C(CSc1ncccc1C(=O)O)Nc1ccc(F)cc1 [Example 19, potassium]
inhibition at 100 µg/mL [1]: 4%
inhibition at 100 µg/mL [3]: 3%
inhibition at 100 µg/mL [4]: 3%
inhibition at 200 µg/mL [5]: 2.7%
inhibition at 100 µg/mL [6]: 6.8%

O=C(CSc1ncccc1C(=O)[O-])Nc1cccc(Cl)c1.[K+] [Example 20, potassium]
inhibition at 100 µg/mL [1]: 17.8%
inhibition at 100 µg/mL [3]: 6.8%
inhibition at 100 µg/mL [4]: 41%
inhibition at 200 µg/mL [5]: 22.2%
inhibition at 100 µg/mL [6]: 4.2%

O=C(CSc1ncccc1C(=O)[O-])Nc1cccc(Cl)c1.[K+] [Example 20]
% survival [2]: 0%

O=C(CSc1ncccc1C(=O)[O-])Nc1ccc(OC(F)(F)F)cc1.[K+] [Example 21, potassium]
inhibition at 100 µg/mL [1]: 16.5%
inhibition at 100 µg/mL [3]: 14.3%
inhibition at 100 µg/mL [4]: 28%
inhibition at 200 µg/mL [5]: 17.4%
inhibition at 100 µg/mL [6]: 20.3%

O=C(CSc1ncccc1C(=O)[O-])Nc1ccc(OC(F)(F)F)cc1.[K+] [Example 21]
% survival [2]: 40%
% survival [7]: 40%

O=C(CSc1ncccc1C(=O)O)Nc1cc(F)ccc1F [Example 22, potassium]
inhibition at 100 µg/mL [1]: 3.4%
inhibition at 100 µg/mL [3]: 3.2%
inhibition at 100 µg/mL [4]: 2.7%
inhibition at 200 µg/mL [5]: 4.4%
inhibition at 100 µg/mL [6]: 2.1%

O=C(CSc1ncccc1C(=O)[O-])Nc1cc(Cl)ccc1OCc1ccccc1.[K+] [Example 23, sodium]
inhibition at 100 µg/mL [1]: 35.8%
inhibition at 100 µg/mL [3]: 78%
inhibition at 100 µg/mL [4]: 55.7%
inhibition at 200 µg/mL [5]: 30.3%
inhibition at 100 µg/mL [6]: 50.7%

O=C(CSc1ncccc1C(=O)[O-])Nc1cc(Cl)ccc1OCc1ccccc1.[K+] [Example 23]
% survival [2]: 80%
% survival [7]: 100%

O=C(CSc1ncccc1C(=O)[O-])Nc1ccccc1OC(F)(F)F.[K+] [Example 24, potassium]
inhibition at 100 µg/mL [1]: 11.2%
inhibition at 100 µg/mL [3]: 8.9%
inhibition at 100 µg/mL [4]: 29.3%
inhibition at 200 µg/mL [5]: 13.2%
inhibition at 100 µg/mL [6]: 5.6%

O=C(CSc1ncccc1C(=O)[O-])Nc1ccccc1OC(F)(F)F.[K+] [Example 24]
% survival [2]: 80%

O=C(CSc1ncccc1C(=O)O)Nc1cccc(OC(F)(F)F)c1 [Example 25, potassium]
inhibition at 100 µg/mL [1]: 3%
inhibition at 100 µg/mL [3]: 2.9%
inhibition at 100 µg/mL [4]: 15.2%
inhibition at 200 µg/mL [5]: 5.7%
inhibition at 100 µg/mL [6]: 4.3%

O=C(CSc1ncccc1C(=O)[O-])Nc1cc(OC(F)(F)F)ccc1Br.[K+] [Example 26, potassium]
inhibition at 100 µg/mL [1]: 13.1%
inhibition at 100 µg/mL [3]: 27.4%
inhibition at 100 µg/mL [4]: 30%
inhibition at 200 µg/mL [5]: 17.1%
inhibition at 100 µg/mL [6]: 12.1%

O=C(CSc1ncccc1C(=O)[O-])Nc1cc(OC(F)(F)F)ccc1Br.[K+] [Example 26]
% survival [2]: 20%

COC(=O)c1ccc(O)c2nc3c(C=O)c(O)cc(O)c3nc12 [lomofungin]
Ki [8]: 6.7 ± 0.7 µM
